Source: paper PMC8267945, “Plumbagin, a Natural Product with Potent Anticancer Activities, Binds to and Inhibits Dihydroorotase, a Key Enzyme in Pyrimidine Biosynthesis” (International Journal of Molecular Sciences, 2021)

Tests used:
ScDHOase = molecular target: T1, ScDHOase (Saccharomyces cerevisiae, UniProt P20051); experiment: rapid spectrophotometric DHOase enzyme assay (hydrolysis of DHO); type: biochemical
T1 construct: made in house; host or cells: E. coli BL21(DE3)
Protocol: PLU (50 μM) was included in the standard assay for analyzing the enzyme activity under different substrate concentrations. […] Data points are an average of three determinations within the 10% error.
(§1) A rapid spectrophotometric assay was used to determine the activity of DHOase. Briefly, the hydrolysis of DHO was measured at 25 °C as the decrease in absorbance at 230 nm. The purified DHOase was added to a 2 mL solution containing 0.5 mM DHO and 100 mM Tris–HCl at pH 8.0 to start the reaction. The extinction coefficient of DHO was 0.92 mM^−1·cm^−1 at 230 nm. The hydrolysis of DHO was monitored using a UV/Vis spectrophotometer (Hitachi U 3300; Hitachi High-Technologies, Tokyo, Japan). A unit of activity was defined as the amount of enzyme catalyzing the hydrolysis of 1 μmol DHO/min, and the specific activity was expressed in terms of units of activity per mg of enzyme. The kinetic parameters Km and Vmax were determined from a nonlinear plot by fitting the hydrolyzing rate from individual experiments to the Michaelis–Menten equation (Enzyme Kinetics module of Sigma-Plot; Systat Software, Chicago, IL, USA).

4T1 cells = experiment: clonogenic formation assay; type: cell-based, mouse
Protocol: A clonogenic formation assay was used to assess the 4T1 cell growth to study whether the PLU can inhibit 4T1 cell proliferation. Briefly, 4T1 cells were seeded at a density of 10^3 cells per well into 6-well plates and incubated overnight for attachment. After different treatments, plates were incubated for 5–7 days to allow clonogenic growth. After washing with PBS, colonies were fixed with methanol and stained with 0.5% crystal violet for 20 min, and the number of colonies was counted under a light microscope.

KpDHOase = molecular target: T2, KpDHOase (Klebsiella pneumoniae subsp. pneumoniae, UniProt A6T7D6); experiment: rapid spectrophotometric DHOase enzyme assay (hydrolysis of DHO); type: biochemical, Klebsiella pneumonia; details: PLU 200 μM
T2 construct: made in house; host or cells: E. coli BL21(DE3)
T2 sequence (A6T7D6 whole entry): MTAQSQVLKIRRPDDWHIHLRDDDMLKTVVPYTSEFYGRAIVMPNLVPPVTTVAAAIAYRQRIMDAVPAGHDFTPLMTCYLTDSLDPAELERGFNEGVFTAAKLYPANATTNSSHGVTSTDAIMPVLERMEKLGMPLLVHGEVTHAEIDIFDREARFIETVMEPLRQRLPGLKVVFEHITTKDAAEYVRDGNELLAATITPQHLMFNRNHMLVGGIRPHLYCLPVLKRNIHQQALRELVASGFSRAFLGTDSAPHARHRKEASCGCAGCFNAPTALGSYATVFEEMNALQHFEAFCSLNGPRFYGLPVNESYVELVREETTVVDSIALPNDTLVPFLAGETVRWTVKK
Protocol: as §1

T1 sequence (P20051 whole entry): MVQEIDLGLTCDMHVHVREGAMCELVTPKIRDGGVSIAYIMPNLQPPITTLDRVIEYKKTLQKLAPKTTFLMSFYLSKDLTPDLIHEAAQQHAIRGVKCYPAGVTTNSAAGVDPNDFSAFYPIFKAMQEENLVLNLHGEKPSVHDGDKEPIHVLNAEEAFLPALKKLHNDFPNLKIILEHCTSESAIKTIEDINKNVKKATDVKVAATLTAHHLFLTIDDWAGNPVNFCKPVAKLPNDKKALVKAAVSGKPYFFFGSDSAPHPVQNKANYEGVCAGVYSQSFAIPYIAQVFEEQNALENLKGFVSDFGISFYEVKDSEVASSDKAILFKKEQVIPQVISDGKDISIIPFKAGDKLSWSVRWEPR

CC1=CC(=O)c2c(O)cccc2C1=O [PLU, plumbagin]
inhibition type (Lineweaver–Burk plot) (ScDHOase; PLU 50 μM, different substrate concentrations): competitive inhibitor
Vmax of ScDHOase in the presence of PLU (ScDHOase; PLU 50 μM, without PLU 69.9 ± 1.0): 64.1 ± 2.8 µmol/mg/min
decrease of the activity of ScDHOase (ScDHOase; PLU 200 μM): 66%
Colony count (4T1 cells; PLU 2 μM): 73%
suppression of proliferation and colony formation (4T1 cells; pretreatment with 10 μM PLU): 98%
decrease of the activity of KpDHOase (KpDHOase): 69%
